According to ChEMBL document CHEMBL1201862, “PubChem BioAssay data set” (2004):
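Five compound concentrations were applied to cells in 96-well plates for 48 hours; endpoints were derived by simple linear interpolation of the resulting dose-response curve. GI50: concentration for 50% inhibition of growth.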 Active and inactive are the calls of the source. No stated cut-off is given here; in the data, active = GI50 up to about 1.1 µM and inactive = higher.

What was measured:
Test in all cases: growth of human tumour cells (NCI), 48 h
[1] = test system: PC-3
[2] = test system: MDA-N
[3] = test system: SF-268
[4] = test system: UACC-257
[5] = test system: COLO 205
[6] = test system: T47D
[7] = test system: UACC-62
[8] = test system: DU-145
[9] = test system: M14
[10] = test system: UO-31
[11] = test system: K562
[12] = test system: HOP-92
[13] = test system: HL-60
[14] = test system: SF-539
[15] = test system: HOP-62
[16] = test system: SNB-19
[17] = test system: SF-295
[18] = test system: HCC 2998
[19] = test system: U-251
[20] = test system: CCRF-CEM

Measured: GI50

COc1ccc(C(=O)/C=C2\C(=O)Nc3ccc(Br)cc32)cc1
inactive: [1] 6.68 µM | [2] 5.81 µM | [3] 16.4 µM | [4] 11.3 µM | [5] 2.3 µM | [6] 11.5 µM | [7] 13.9 µM | [8] 7.48 µM | [9] 12 µM | [10] 2.24 µM | [11] 5.07 µM | [12] 3.24 µM | [13] 1.99 µM | [14] 7.93 µM | [15] 10.4 µM | [16] 16.7 µM | [17] 16.2 µM | [18] 4.26 µM | [19] 14.2 µM | [20] 1.4 µM

Cc1ccc(S(=O)(=O)N/N=C2\CC3C4CCC3C2C4)cc1 (stereo unspecified)
inactive: [1] > 100 µM | [2] > 100 µM | [3] > 100 µM | [4] > 100 µM | [5] > 100 µM | [6] > 100 µM | [7] > 100 µM | [8] > 100 µM | [9] > 100 µM | [10] > 100 µM | [11] > 100 µM | [12] > 100 µM | [13] > 100 µM | [14] > 100 µM | [15] > 100 µM | [16] > 100 µM | [17] > 100 µM | [18] > 100 µM | [19] > 100 µM | [20] > 100 µM

Cc1[nH]c(=O)nc(NCCNCCO)c1C(=O)Nc1c2ccccc2nc2ccccc12
inactive: [1] > 100 µM | [2] > 100 µM | [4] > 100 µM | [5] > 100 µM | [6] > 100 µM | [7] > 100 µM | [8] > 100 µM | [9] > 100 µM | [10] > 100 µM | [11] > 100 µM | [12] > 100 µM | [13] > 100 µM | [14] > 100 µM | [15] > 100 µM | [16] > 100 µM | [17] > 100 µM | [18] > 100 µM | [19] > 100 µM | [20] > 100 µM

CN(CCCNC(=O)c1c2ccc3ccccc3c2nn1C)CCCNC(=O)c1c2ccc3ccccc3c2nn1C
inactive: [1] 12.4 µM | [2] 2.96 µM | [3] 11.5 µM | [4] 1.9 µM | [5] 1.81 µM | [6] 7.62 µM | [7] 1.87 µM | [8] 17.5 µM | [9] 2.05 µM | [10] 6.47 µM | [11] 3.48 µM | [12] 3.21 µM | [13] 10.4 µM | [14] 6.24 µM | [15] 14.8 µM | [16] 14.9 µM | [17] 4.29 µM | [18] 1.87 µM | [19] 7.85 µM | [20] 8.18 µM

CC(=O)Oc1ccc2c(c1)c1c(=O)oc(C)nc1n2Cc1ccccc1
inactive: [1] 41.8 µM | [2] 27.5 µM | [3] 17.6 µM | [4] > 100 µM | [5] 24.6 µM | [6] 33.5 µM | [7] 16.3 µM | [8] > 55.7 µM | [9] 40.3 µM | [10] 2.79 µM | [11] 50.8 µM | [12] 34 µM | [13] 57.7 µM | [14] 27.5 µM | [15] 32.7 µM | [16] 69.8 µM | [17] 43.6 µM | [18] > 100 µM | [19] 30.9 µM | [20] > 64.3 µM

O=C(CSc1nc2ccc(I)cc2c(=O)n1Cc1ccccc1)NN1C(=O)CSC1c1ccccc1 (stereo unspecified)
inactive: [1] 32.2 µM | [2] 35.7 µM | [3] 28.8 µM | [4] 20.4 µM | [5] 15.3 µM | [6] 28.1 µM | [7] 19.3 µM | [8] 26.4 µM | [9] 29.5 µM | [11] 26.5 µM | [12] 19.4 µM | [13] 4.68 µM | [14] 27.9 µM | [15] 18.6 µM | [16] 40.7 µM | [17] 27.1 µM | [18] 21.5 µM | [19] 29.6 µM | [20] 29.2 µM

COc1cc2c(cc1OC)C1c3ccccc3CCCN1CC2 (stereo unspecified)
inactive: [1] > 100 µM | [2] > 100 µM | [3] > 100 µM | [4] > 100 µM | [5] > 100 µM | [6] > 100 µM | [7] > 100 µM | [8] > 100 µM | [9] > 100 µM | [10] 8.41 µM | [11] > 100 µM | [12] 33 µM | [13] 41.3 µM | [14] > 100 µM | [15] > 100 µM | [16] > 100 µM | [17] 47.6 µM | [18] > 100 µM | [19] > 100 µM | [20] > 100 µM

C[C@@H](C1CC[C@H]2[C@@H]3[C@@H]4O[C@@H]4[C@@]4(O)CC=CC(=O)[C@]4(C)[C@H]3C[C@H](O)[C@]12C)[C@H]1C[C@]2(C)O[C@]2(C)C(=O)O1 (stereo partly specified)
inactive: [1] > 100 µM | [2] > 100 µM | [3] > 100 µM | [4] > 100 µM | [5] > 100 µM | [6] > 100 µM | [7] > 100 µM | [8] > 100 µM | [9] > 100 µM | [10] > 100 µM | [11] > 100 µM | [12] > 100 µM | [13] > 100 µM | [14] > 100 µM | [16] > 100 µM | [17] > 100 µM | [18] > 100 µM | [19] > 100 µM | [20] 56.6 µM

O=C1OC(c2ccc([N+](=O)[O-])cc2)=N/C1=C\c1ccc(Cl)cc1
inactive: [1] > 100 µM | [2] > 100 µM | [3] > 100 µM | [4] > 100 µM | [5] > 100 µM | [6] > 100 µM | [7] > 100 µM | [8] > 100 µM | [9] > 100 µM | [11] > 100 µM | [12] > 100 µM | [13] > 100 µM | [14] > 100 µM | [15] > 100 µM | [16] > 100 µM | [17] > 100 µM | [18] > 100 µM | [19] > 100 µM | [20] > 100 µM

c1ccc2c(c1)CCN1CCc3c([nH]c4ccccc34)C21 (stereo unspecified)
inactive: [1] 26.6 µM | [2] 25.1 µM | [3] 30.8 µM | [4] 24.4 µM | [5] 21.4 µM | [6] 32.5 µM | [7] 31.6 µM | [8] 40.6 µM | [9] 16.7 µM | [10] 28.6 µM | [11] 20.5 µM | [12] 22.2 µM | [13] 13.7 µM | [14] 49 µM | [15] 36 µM | [16] 67.5 µM | [17] 20 µM | [18] 17.2 µM | [19] 34.2 µM | [20] 31.5 µM
